Like-named read-outs stand apart in the source and are kept apart here.
Tests used:
[1] = test system: UV erythema in guinea pig; assay: Ultraviolet erythema test in guinea pigs; type: in vivo; conditions: 5% Tincture, mean of assessments six hours after radiation and the following morning
Description: Guinea pigs were subjected to the ultraviolet erythema test in a further experiment. For this purpose, the hair was removed from the backs of the test animals by shearing and treatment with a depilatory cream. The test animals were then exposed to radiation for eight minutes, and the marked test areas were then treated with the test solutions or salves. A second application was effected after thirty minutes, and a third and the following treatments were effected at intervals of sixty minutes. Six hours after having been exposed to radiation, the animals were washed, dried and visually assessed.
Assessment was repeated the following morning and the mean value for each substance was calculated from the two assessments. The two spots exposed to radiation directly behind the ears were chosen as reference points which had been exposed to radiation and which had not been treated. The intensity of the redness of these spots was equated with 0. Disappearance of the redness at the treated places was assessed by plus points up to +4 (no spots visible), and an intensification of the redness was assessed with minus points up to -4 (formation of blisters). The total of the assessments from the two evaluations, expressed in the ratio to the number of animals times 8 as the maximum attainable value (= 100%) gives the percentage inhibiting value of the substance. The inhibiting values ascertained in this manner are given in the following table under the heading "UR Erythema Guinea Pigs".

[2] = test system: UV edema in hairless mouse; assay: Ultraviolet test on hairless mice (UV edema, skin fold thickness); type: in vivo; conditions: 5% in Vaseline, skin fold thickness after 30 hrs
Description: However, an ultraviolet test was carried out on hairless mice which also provide information concerning the efficacy of the substances for use as agents for treating sunburn. The backs of the hairless mice were exposed to radiation by an ultraviolet lamp for thirty minutes from a distance of 60 cm, thus causing a cutaneous inflammation. […] The dosage of the test substances was the same as in the rat's paw test. The degree of formation of edema was determined by measuring the skin fold thickness after thirty hours. The degree of the percentage inhibition of the erythema is given in the following Table I and was determined by comparing the change in the skin fold thickness, caused in treated test animals by exposure to radiation, with the change in the skin fold thickness in animals which, although exposed to radiation, had not been treated.

[3] = test system: Dextran edema, rat's paw; assay: Edema of the rat's paw test, dextran edema; type: in vivo; conditions: 1000 mg/kg p.o. thirty minutes before dextran, measured thirty minutes after dextran injection
Description: The edema of the rat's paw test, as described by F. Kemper in "Arzneimittelforschung" 10 (1960), p. 777, was used as a test for assessing the compounds with respect to their suitability for inhibiting inflammation. In order to produce the edema, 0.1 ml of 6% dextran solution was injected to a depth of approximately 5 mm between the second and third toe of the right hind paw of the test animals. While only the dextran solution was administered to the control test animals, the various test substances were injected or administered per os to the test animals in the quantities given in Table I thirty minutes before the test animals were injected with the dextran solution. The volume of the paws was determined by means of the electrical volume measuring device described in detail by Kemper & Amelin in "Zeitschrift fur die gesamte experimentelle Medizin" 131 (1958), p. 407.
The measurements were taken thirty minutes after the dextran solution injection. For the purpose of comparison, the left untreated paw was in each case measured at the said times. The amount of the swelling in animals which had been treated with the test substance and in non-treated animals thirty minutes after the dextran injection were used to calculate the degree of the inhibiting of the edema as a percentage of the swelling which occurred in animals which had not received any test substance.

[4] = test system: Carrageenin edema, rat's paw; assay: Rat's paw test, carrageenin edema (amputation methodology); type: in vivo; conditions: 1000 mg/kg p.o. one hour before initiating the inflammation, paws weighed three hours after carrageenin
From the text: The so-called amputation methodology, described by C. H. Winter in Journal of Pharmaceutical and Experimental Therapeutics, Vol. 141 (1963), page 369, was used as a further rat's paw test. In this method, the test animals are killed three hours after injecting the substance causing the inflammation, and the weights of the paws are ascertained. The product used to cause inflammation in these tests is carrageenin. The inhibiting of the development of the edema of the rats' paws by the test substance, which was administered orally one hour before initiating the inflammation,serves as an indication of the efficacy and is expressed in percentages.

[5] = Orientating test of toxicity; conditions: in vivo
Description: The alkoxybenzoic acid esters, to be used in accordance with the present invention, were tested for their inflammation-inhibiting properties in the experiments described hereinafter. An orientating test of their toxicity was first carried out in order to be able to establish the test dosages for further experiments.

Structure (SMILES)	UV Erythema in Guinea Pig Inhibition [1]	UV Edema in Hairless Mouse Inhibition After 30 hrs [2]	Rat's Paw Test Dextran Edema Inhibition [3]	Rat's Paw Test Carrageenin Edema Inhibition [4]	LD50 ([5]; read-out: Orientating Toxicity)	Orientating Toxicity [5]	LD50 [5]
CCCOC(=O)c1ccc(OC)cc1 [Compound A, n-Propyl Anisate]	60%	49%	25%	12%	> 1000 mg/kg		
COC(=O)c1ccc(OC)cc1 [Compound B, Methyl Anisate]	31%	41%	28%	18%	> 1000 mg/kg		
COc1ccc(C(=O)OC(C)C)cc1 [Compound C, Isopropyl Anisate]	40%	38%	20%	9%	> 1000 mg/kg		
CCCCOC(=O)c1ccc(OC)cc1 [Compound D, Butyl Anisate]	51%	36%	9%	11%	> 1000 mg/kg		
COc1ccc(C(=O)OC(C)(C)C)cc1 [Compound E, Tert.-Butyl Anisate]	43%	30%	11%	41%	> 1000 mg/kg		
COc1ccc(C(=O)OCC(C)(C)C)cc1 [Compound F, 2,2-Dimethyl-propyl Anisate]	48%	35%	15%	30%		22 1.0 gm/kg	
COc1ccc(C(=O)OCc2ccccc2)cc1 [Compound G, Benzyl Anisate]	46%	31%	5%	19%			> 1000 mg/kg

— patent US4136165A, “Cosmetic preparations with alkoxybenzoic acid esters as inflammation inhibitors and method” (Henkel Kommanditgesellschaft auf Aktien, priority 1976, dated 1979)
